Data on 1 compound can be found in ChEMBL document CHEMBL5696441 (Nat Chem Biol, 2011).

Assay [1] has as its target G protein-coupled receptor kinase 4 (Homo sapiens) (UniProt P32298). The experiment in a line: Inhibition of GRK4 (unknown origin) assessed as remaining activity at 1 uM by Kinome scan method relative to control.
Assay [2] addresses Vascular endothelial growth factor receptor 2 (Homo sapiens) (UniProt P35968). In words: Inhibition of human VEGFR2 assessed as residual activity at 1 uM using polyEY as substrate in presence of 33P-ATP by ProQinase assay relative to control.
The target of assay [3] is Casein kinase II subunit alpha' (Homo sapiens) (UniProt P19784). In words: Inhibition of human CK2alpha2 assessed as residual activity at 1 uM using casein as substrate in presence of 33P-ATP by ProQinase assay relative to control.
The target of assay [4] is T1, Serine/threonine-protein kinase 17A (Homo sapiens) (UniProt Q9UEE5).
T1 sequence (whole entry): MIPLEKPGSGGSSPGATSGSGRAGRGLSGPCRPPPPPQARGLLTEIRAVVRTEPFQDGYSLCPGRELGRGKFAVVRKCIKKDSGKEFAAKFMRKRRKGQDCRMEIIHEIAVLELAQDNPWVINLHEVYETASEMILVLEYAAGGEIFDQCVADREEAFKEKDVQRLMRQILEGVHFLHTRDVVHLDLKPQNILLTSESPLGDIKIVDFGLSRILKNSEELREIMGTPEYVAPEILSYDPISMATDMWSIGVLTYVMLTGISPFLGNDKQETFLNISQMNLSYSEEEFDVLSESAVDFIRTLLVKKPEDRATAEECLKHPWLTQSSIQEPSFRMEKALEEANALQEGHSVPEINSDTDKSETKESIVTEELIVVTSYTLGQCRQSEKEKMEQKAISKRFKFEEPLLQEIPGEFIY
The experiment in a line: Inhibition of human STK17A assessed as residual activity at 1 uM using RB-CTF as substrate in presence of 33P-ATP by ProQinase assay relative to control.

The target of assay [5] is RAC-beta serine/threonine-protein kinase (Homo sapiens) (UniProt P31751). In words: Inhibition of human AKT2 assessed as residual activity at 1 uM using RBER-GSK3(14-27) as substrate in presence of 33P-ATP by ProQinase assay relative to control.
Assay [6] concerns the target CDK2/Cyclin A2 (Homo sapiens) (UniProt P24941+P20248). The experiment in a line: Inhibition of human CDK2/CycA2 assessed as residual activity at 1 uM using RBER-CHKtide as substrate in presence of 33P-ATP by ProQinase assay relative to control. Format: protein-complex assay.
The target of assay [7] is Ribosomal protein S6 kinase alpha-1 (Homo sapiens) (UniProt Q15418). The experiment in a line: Inhibition of human RPS6KA1 assessed as residual activity at 1 uM using RBER-CHKtide as substrate in presence of 33P-ATP by ProQinase assay relative to control.
Assay [8] concerns the target Tyrosine-protein kinase receptor TYRO3 (Homo sapiens) (UniProt Q06418). In words: Inhibition of human TYRO3 assessed as residual activity at 1 uM using PolyEY as substrate in presence of 33P-ATP by ProQinase assay relative to control.
For assay [9], the target named is Mitogen-activated protein kinase kinase kinase 1 (Homo sapiens) (UniProt Q13233). The experiment in a line: Inhibition of MAP3K1 (unknown origin) assessed as remaining activity at 1 uM by Kinome scan method relative to control.
For assay [10], the target named is Fibroblast growth factor receptor 1 (Homo sapiens) (UniProt P11362). The experiment in a line: Inhibition of human FGFR1 assessed as residual activity at 1 uM using PolyEY as substrate in presence of 33P-ATP by ProQinase assay relative to control.
Assay [11] relates to Platelet-derived growth factor receptor alpha (Homo sapiens), P16234 [D842V]. The experiment in a line: Inhibition of human PDGFRalpha D842V mutant assessed as residual activity at 1 uM using Poly(Ala,Glu,Lys,Tyr)6:2:5:1 as substrate in presence of 33P-ATP by ProQinase assay relative to control.
Assay [12] relates to Leucine-rich repeat serine/threonine-protein kinase 2 (Homo sapiens), Q5S007 [I2020T]. The experiment in a line: Inhibition of human LRRK2 I2020T mutant assessed as residual activity at 1 uM using RBER-CHKtide as substrate in presence of 33P-ATP by ProQinase assay relative to control.
For assay [13], the system named is Phosphatidylinositol 4,5-bisphosphate 3-kinase catalytic subunit alpha isoform (Homo sapiens), P42336 [Q546K]. In words: Inhibition of PIK3CA Q546K mutant (unknown origin) assessed as remaining activity at 1 uM by Kinome scan method relative to control.
Assay [14] deals with Serine/threonine-protein kinase Nek4 (Homo sapiens) (UniProt P51957). The experiment in a line: Inhibition of human NEK4 assessed as residual activity at 1 uM using MBP as substrate in presence of 33P-ATP by ProQinase assay relative to control.
Assay [15] deals with Calcium/calmodulin-dependent protein kinase kinase 1 (Homo sapiens) (UniProt Q8N5S9). The experiment in a line: Inhibition of CAMKK1 (unknown origin) assessed as remaining activity at 1 uM by Kinome scan method relative to control.
Assay [16] can be described thus: Anti-inflammatory activity against human derived high respond PBMC cells assessed as inhibition in stimulated IL-17A cytokine release incubated for 2 hrs in the presence of LPS/SEB/aCD28 by Luminex based sandwich immunoassay. In kind it is functional, cell-based.
In assay [17] the target is Serine/threonine-protein kinase 25 (Homo sapiens) (UniProt O00506). The experiment in a line: Inhibition of human STK25 assessed as residual activity at 1 uM using casein as substrate in presence of 33P-ATP by ProQinase assay relative to control.
Assay [18] has as its target T2, Testis-specific serine/threonine-protein kinase 1 (Homo sapiens) (UniProt Q9BXA7).
T2 sequence (whole entry): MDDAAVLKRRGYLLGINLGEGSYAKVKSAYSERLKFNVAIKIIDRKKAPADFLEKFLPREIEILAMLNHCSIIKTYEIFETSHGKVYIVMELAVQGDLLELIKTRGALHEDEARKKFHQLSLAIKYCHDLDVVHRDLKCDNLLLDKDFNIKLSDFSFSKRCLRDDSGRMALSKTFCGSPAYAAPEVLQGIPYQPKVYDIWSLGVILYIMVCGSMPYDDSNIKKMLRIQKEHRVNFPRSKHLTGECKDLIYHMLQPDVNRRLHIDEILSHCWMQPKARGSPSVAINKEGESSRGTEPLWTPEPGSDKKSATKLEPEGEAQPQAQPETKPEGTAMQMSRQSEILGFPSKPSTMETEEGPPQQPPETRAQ
In words: Inhibition of human TSSK1 assessed as residual activity at 1 uM using RBER-CHKtide as substrate in presence of 33P-ATP by ProQinase assay relative to control.

The target of assay [19] is Ephrin type-A receptor 2 (Homo sapiens) (UniProt P29317). The experiment in a line: Inhibition of human EPHA2 assessed as residual activity at 1 uM using polyEy as substrate in presence of 33P-ATP by ProQinase assay relative to control.
In assay [20] the target is SRSF protein kinase 3 (Homo sapiens) (UniProt Q9UPE1). In words: Inhibition of SRPK3 (unknown origin) assessed as remaining activity at 1 uM by Kinome scan method relative to control.
SRSF protein kinase 3 (Homo sapiens), sequence (Q9UPE1 whole entry): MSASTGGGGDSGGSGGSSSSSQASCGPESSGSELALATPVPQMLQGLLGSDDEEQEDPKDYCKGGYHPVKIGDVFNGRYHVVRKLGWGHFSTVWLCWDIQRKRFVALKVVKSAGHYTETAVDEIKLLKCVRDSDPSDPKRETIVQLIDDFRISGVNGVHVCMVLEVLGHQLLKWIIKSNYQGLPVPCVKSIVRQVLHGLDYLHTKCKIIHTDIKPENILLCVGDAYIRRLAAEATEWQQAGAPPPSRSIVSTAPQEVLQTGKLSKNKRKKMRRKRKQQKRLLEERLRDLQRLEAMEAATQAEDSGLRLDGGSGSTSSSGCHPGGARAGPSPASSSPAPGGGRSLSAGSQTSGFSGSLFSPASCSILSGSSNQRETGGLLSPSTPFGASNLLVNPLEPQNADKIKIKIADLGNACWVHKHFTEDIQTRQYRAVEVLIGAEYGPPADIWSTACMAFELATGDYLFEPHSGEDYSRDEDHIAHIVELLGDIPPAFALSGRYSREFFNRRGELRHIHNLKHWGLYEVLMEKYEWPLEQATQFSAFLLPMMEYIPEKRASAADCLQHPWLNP

RAC-beta serine/threonine-protein kinase (Homo sapiens), sequence (P31751 whole entry): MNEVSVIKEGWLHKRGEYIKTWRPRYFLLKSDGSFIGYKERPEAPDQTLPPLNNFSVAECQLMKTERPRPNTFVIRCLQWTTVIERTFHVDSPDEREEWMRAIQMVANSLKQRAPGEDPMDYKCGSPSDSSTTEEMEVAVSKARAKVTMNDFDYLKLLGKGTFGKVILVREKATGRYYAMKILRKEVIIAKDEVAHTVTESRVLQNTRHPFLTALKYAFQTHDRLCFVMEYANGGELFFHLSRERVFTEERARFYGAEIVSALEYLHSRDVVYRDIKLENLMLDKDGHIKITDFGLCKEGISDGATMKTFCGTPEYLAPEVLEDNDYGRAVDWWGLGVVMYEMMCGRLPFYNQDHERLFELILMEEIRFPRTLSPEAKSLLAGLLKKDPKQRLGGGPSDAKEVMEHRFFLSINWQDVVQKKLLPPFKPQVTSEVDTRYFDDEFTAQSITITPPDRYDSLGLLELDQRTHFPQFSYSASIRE
Casein kinase II subunit alpha' (Homo sapiens), sequence (P19784 whole entry, looked up): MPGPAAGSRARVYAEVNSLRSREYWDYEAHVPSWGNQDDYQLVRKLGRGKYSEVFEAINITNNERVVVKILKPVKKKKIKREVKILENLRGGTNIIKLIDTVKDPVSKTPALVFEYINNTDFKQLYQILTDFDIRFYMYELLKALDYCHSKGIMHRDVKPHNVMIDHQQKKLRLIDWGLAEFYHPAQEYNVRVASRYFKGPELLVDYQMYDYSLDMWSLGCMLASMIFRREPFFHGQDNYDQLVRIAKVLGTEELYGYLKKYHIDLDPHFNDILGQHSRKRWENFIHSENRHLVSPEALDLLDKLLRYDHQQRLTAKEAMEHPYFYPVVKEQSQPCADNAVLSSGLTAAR
G protein-coupled receptor kinase 4 (Homo sapiens), sequence (P32298 whole entry, looked up): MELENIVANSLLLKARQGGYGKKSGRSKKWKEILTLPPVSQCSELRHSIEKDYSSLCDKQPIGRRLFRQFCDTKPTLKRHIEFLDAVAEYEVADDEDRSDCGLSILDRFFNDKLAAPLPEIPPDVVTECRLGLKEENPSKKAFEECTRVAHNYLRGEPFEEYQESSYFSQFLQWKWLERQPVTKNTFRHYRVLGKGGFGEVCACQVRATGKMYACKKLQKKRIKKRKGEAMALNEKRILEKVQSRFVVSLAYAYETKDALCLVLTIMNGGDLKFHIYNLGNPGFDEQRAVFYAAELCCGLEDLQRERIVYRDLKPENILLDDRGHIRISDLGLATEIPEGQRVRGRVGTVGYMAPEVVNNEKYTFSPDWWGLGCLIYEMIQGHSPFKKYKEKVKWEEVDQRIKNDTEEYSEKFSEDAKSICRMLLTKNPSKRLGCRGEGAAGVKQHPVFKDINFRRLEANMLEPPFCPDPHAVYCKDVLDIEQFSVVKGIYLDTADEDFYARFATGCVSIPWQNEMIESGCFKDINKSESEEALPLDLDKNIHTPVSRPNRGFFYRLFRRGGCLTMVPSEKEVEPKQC
Leucine-rich repeat serine/threonine-protein kinase 2 (Homo sapiens), Q5S007 [I2020T], sequence (Q5S007 whole entry I2020T, canonical isoform): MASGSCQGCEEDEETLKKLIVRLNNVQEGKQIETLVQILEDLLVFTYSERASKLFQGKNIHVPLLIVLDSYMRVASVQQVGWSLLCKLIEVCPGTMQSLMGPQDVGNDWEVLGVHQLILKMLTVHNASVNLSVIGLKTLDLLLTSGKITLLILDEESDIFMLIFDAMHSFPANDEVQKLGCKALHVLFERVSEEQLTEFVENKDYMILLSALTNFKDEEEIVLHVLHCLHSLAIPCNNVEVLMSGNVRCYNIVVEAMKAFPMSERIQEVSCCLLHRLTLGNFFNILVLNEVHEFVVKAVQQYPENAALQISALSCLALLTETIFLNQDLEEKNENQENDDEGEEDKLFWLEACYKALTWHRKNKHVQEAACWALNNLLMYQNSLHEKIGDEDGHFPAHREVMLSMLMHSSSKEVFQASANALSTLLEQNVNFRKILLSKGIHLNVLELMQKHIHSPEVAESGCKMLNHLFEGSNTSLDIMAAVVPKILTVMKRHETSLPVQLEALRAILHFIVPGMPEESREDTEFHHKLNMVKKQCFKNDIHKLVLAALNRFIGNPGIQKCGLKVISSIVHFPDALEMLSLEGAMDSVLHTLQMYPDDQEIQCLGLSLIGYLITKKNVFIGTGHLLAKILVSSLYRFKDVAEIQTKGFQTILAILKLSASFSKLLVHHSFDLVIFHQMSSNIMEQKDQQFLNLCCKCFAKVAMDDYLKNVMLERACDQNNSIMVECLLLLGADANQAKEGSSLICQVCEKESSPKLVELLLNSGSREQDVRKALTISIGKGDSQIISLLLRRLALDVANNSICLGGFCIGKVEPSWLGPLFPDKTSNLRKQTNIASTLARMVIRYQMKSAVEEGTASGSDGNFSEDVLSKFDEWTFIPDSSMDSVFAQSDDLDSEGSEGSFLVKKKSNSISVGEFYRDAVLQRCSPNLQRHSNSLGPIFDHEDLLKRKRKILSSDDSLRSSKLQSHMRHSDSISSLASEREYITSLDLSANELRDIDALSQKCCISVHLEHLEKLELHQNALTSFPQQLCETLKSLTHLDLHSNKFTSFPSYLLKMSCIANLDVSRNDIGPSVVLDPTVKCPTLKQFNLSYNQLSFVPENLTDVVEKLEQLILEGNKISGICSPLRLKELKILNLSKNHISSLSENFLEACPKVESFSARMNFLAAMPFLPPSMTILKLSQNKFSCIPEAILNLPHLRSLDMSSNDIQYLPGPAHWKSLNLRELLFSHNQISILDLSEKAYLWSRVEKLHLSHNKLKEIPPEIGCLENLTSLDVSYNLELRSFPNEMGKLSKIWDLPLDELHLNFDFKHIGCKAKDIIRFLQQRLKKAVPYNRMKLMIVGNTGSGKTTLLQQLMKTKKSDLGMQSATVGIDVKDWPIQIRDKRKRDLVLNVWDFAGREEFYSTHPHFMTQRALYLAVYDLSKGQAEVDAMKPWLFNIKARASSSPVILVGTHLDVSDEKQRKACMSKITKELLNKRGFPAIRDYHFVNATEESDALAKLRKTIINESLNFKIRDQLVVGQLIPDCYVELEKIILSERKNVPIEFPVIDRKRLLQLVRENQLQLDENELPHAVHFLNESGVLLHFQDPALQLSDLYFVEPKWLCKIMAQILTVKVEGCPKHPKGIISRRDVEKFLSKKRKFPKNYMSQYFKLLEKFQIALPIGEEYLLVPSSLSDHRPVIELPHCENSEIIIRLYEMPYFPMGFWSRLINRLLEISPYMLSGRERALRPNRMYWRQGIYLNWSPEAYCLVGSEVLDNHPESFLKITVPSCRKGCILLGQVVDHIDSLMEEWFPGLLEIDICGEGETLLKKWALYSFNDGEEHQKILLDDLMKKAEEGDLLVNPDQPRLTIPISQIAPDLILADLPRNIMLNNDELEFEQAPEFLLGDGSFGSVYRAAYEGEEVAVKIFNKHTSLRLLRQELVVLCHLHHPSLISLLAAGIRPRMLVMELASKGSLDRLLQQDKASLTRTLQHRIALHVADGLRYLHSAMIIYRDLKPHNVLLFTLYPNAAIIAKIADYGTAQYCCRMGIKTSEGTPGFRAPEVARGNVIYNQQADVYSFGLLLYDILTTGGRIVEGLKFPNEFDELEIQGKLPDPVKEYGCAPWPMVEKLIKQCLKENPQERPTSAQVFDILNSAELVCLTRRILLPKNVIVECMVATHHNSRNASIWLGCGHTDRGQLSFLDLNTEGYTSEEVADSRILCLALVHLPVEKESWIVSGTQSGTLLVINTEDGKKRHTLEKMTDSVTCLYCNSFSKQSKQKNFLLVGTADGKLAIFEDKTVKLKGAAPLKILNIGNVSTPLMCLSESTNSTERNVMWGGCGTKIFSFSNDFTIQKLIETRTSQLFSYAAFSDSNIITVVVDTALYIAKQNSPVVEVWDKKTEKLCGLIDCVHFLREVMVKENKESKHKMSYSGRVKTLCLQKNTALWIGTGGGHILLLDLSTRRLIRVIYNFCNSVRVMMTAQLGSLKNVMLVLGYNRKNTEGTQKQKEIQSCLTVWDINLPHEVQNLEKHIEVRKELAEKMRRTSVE
Calcium/calmodulin-dependent protein kinase kinase 1 (Homo sapiens), sequence (Q8N5S9 whole entry, looked up): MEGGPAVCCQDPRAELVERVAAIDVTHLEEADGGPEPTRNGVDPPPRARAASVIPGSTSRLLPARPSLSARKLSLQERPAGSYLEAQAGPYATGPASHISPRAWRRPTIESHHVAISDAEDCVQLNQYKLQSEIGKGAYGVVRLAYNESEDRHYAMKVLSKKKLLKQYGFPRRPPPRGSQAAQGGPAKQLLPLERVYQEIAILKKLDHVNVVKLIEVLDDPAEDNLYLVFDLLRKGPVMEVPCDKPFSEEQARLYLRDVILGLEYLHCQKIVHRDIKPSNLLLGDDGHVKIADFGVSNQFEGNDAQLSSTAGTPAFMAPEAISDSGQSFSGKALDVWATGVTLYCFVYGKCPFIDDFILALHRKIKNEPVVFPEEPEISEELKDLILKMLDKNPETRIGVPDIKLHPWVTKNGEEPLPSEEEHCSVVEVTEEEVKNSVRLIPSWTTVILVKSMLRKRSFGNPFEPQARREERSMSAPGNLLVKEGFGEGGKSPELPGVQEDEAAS

`O=C1c2ccc(Nc3ccc(F)cc3F)cc2CCc2ccc(OC[C@H](O)CO)cc21` [Skepinone-L]: the Activity in assay [1] worked out at 100%; in assay [2], 91%; in [3], 87%; in assay [4], 77%; in assay [5] it was 121%; in assay [6], 101%. Moreover, the Activity is 89% in [7]; 108% in assay [8]; 100% in [9]; 117% in assay [10]; 97% in assay [11]; 94% in assay [12]. Further, the Activity in [13] came out at 100%; in assay [14] it was 99%; in assay [15], 100%; in assay [17], 100%; in [18], 90%; in [19], 119%. For the same compound, in assay [20], the Activity worked out at 100%. For the same compound, the IC50 in [16] is 420 nM.
